Results published in ChEMBL document CHEMBL3108768 (ACS Med Chem Lett, 2014).
pEC50: −log10 of the molar value.

Assays:
[1] = test system: HeLa; assay: (§1) Inhibition of STX (unknown origin)-induced toxicity in human HeLa cells assessed as protection against toxin-induced inhibition of protein biosynthesis by measuring incorporation of [14C]-leucine into cells at 30 uM preincubated for 1 hr followed by toxin challenge measured after 20 hrs by liquid scintillation counting analysis relative to control; assay type: cell-based
[2] = as §1, with “cells” for “cells at 30 uM”, “analysis” for “analysis relative to control”; assay type: cell-based

| SMILES | fold change (FC) [1] | pEC50 [2] |
| --- | --- | --- |
| Cc1nc(-c2ccc([C@@H]3N(C)c4ccc(F)cc4C(=O)N3c3ccccc3)s2)cs1 | 68 | 5.62 |
| Cc1nc(-c2ccc(C3N(C)c4ccc(F)cc4C(=O)N3c3ccccc3)s2)cs1 (racemic) | – | 6.99 |
| Cc1ccc(/C=N/c2ccccc2C(=O)Nc2ccccc2)s1 | – | 4.57 |
| Cc1nc(-c2ccc([C@H]3N(C)c4ccc(F)cc4C(=O)N3c3ccccc3)s2)cs1 | 357 | 7.27 |
